Where two headings read alike, the source gives them in different places.
Legend:
p-eIF2α = assay: Cellular PERK inhibition: p-eIF2a TR-FRET in tunicamycin-treated HEK293-EGFP-eIF2a cells; format: cell-based
Protocol: Methods used to evaluate in vitro cellular PERK inhibition are described and published elsewhere. In brief, stableHEK293 cells were created using lentiviral particles harboring a GFP-eIF2a expression vector. Transfectants were selected by puromycin and enriched using fluorescent cell sorting based on GFP expression. HEK293-EGFP-eIF2a cells were plated at 5000 cells/well in 384-well assay plates and incubated overnight. The following day, pyrrolopyrimidine analogs were added to wells using an Echo acoustic dispenser and incubated for 30 min. ER stress was induced by the addition of tunicamycin to the wells at […] for 2 h. Cells were lysed and peIF2a was evaluated using a TR-FRET system, as described above.
The PERK activity of analog I was evaluated using cell-free biochemical assays. In these assays, PERK phosphorylation of eIF2a was assessed using a FRET-based labelled protein assay. Compounds were then evaluated for cellular activity by quantifying inhibition of eIF2a phosphorylation in HEK293 cells treated with the ER inducer tunicamycin [7].

[1] = Caco-2 permeability / efflux; format: in vitro ADME; settings: human, Caco-2, pH 7.4; for efflux ratio at 120 min, 5 µM: Papp (B-to-A) / Papp (A-to-B)
Protocol: P-gp Substrate Assessment using Caco-2 Monolayers
Caco-2 cells (clone C2BBe1) were obtained from American Type Culture Collection (Manassas, VA). Hanks’ balanced salt solution, valspodar and lucifer yellow were obtained from Sigma-Aldrich (St. Louis, MO). All solvents were obtained from commercial sources and used without further purification. Cell monolayers were grown to confluence on collagen-coated, microporous membranes in 12-well assay plates. Details of the plates and their certification are shown below. The permeability assay buffer was Hanks’ balanced salt solution (HBSS) containing 10 mM HEPES and 15 mM glucose at a pH of 7.4. The buffer in the receiver chamber also contained 1% bovine serum albumin. The dosing solution concentration was 5 μM of test article in the assay buffer +/- 1 μM valspodar. Cells were first pre-incubated for 30 minutes with HBSS containing +/- 1 μM valspodar. Cell monolayers were dosed on the apical side (A-to-B) or basolateral side (B-to-A) and incubated at 37°C with 5% CO2 in a humidified incubator. Samples were taken from the donor and receiver chambers at 120 minutes. Each determination was performed in duplicate. The flux of lucifer yellow was also measured post-experimentally for each monolayer to ensure no damage was inflicted to the cell monolayers during the flux period. All samples were assayed by LC-MS/MS using electrospray ionization.
LC-MS/MS Analysis using the PE Sciex API 4000 mass spectrometer […]
Column: Waters ACQUITY UPLC BEH Phenyl 30 × 2.1 mm, 1.7 µm
Mobile Phase Buffer: 25 mM ammonium formate buffer, pH 3.5
Aqueous Reservoir (A): 90% water, 10% buffer
Organic Reservoir (B): 90% acetonitrile, 10% buffer
Total Run Time: 1.00 minute
Autosampler: 10 µL injection volume
Wash1: water/methanol/2-propanol:1/1/1; with 0.2% formic acid
Wash2: 0.1% formic acid in water
Instrument: PE SCIEX API 4000
Interface: Turbo Ionspray
Mode: Multiple Reaction Monitoring (Negative ion mode)
Method: 1.0 minute duration
Mass Spectrometer Settings
Data Analysis and Calculations
The apparent permeability (Papp) and percent recovery were calculated as follows:
Papp = (dCr/dt) × Vr/(A × CA)
Percent recovery = 100 × ((V × Cfinal) + (V × Cfinal)) / (V × C ) […]
dCr/dt is the slope of the cumulative receiver concentration versus time in µM s-1;
Vr is the volume of the receiver compartment in cm3;
Vd is the volume of the donor compartment in cm3;
A is the area of the insert (1.13 cm2 for 12-well);
CA is the average of the nominal dosing concentration and the measured 120 minute donor concentration in μM;
CN is the nominal concentration of the dosing solution in μM;
Cfinal is the cumulative receiver concentration in μM at the end of the incubation period; […]
Cd is the concentration of the donor in μM at the end of the incubation period.
Efflux ratio (ER) is defined as Papp (B-to-A) / Papp (A-to-B). […]

[2] = Plasma protein binding (RED dialysis), mouse; format: in vitro ADME; settings: male, CD-1 (ICR), pH 7.4
Excerpt: Verapamil hydrochloride and tamoxifen were obtained from Sigma-Aldrich. […]
Pooled mixed gender human donor plasma, Sprague Dawley male rat plasma, CD-1 (ICR) male mouse plasma and male beagle dog plasma were obtained from Bioreclamation Inc. (Westbury, NY). Reusable Teflon base plate, RED Device inserts, and BupH Phosphate Buffered Saline packs (0.1 M sodium phosphate and 0.15 M sodium chloride when dissolved in 0.5 L water) were obtained from Thermo Scientific (Waltham, MA). Propranolol was obtained from Sigma-Aldrich (St. Louis, MO). All solvents were obtained from commercial sources and used without further purification.
Frozen plasma was thawed and the pH of plasma and BupH phosphate buffered saline was adjusted to 7.4 prior to dialysis. Into each well of a reusable Teflon 48-well base plate a RED insert was placed open end up. Ten microliters (10 µL) of the test compound (0.1 mM in acetonitrile/water, 1:1 v/v) was added to 990 µL of plasma to achieve 1 µM final concentration. The spiked plasma (200 µL) was added to the sample chamber, which is indicated by the red retainer ring (donor side). To the other side (receiver side), 350 µL of BupH phosphate buffered saline (pH 7.4) was added. A buffer-to-buffer assay was also performed to measure equilibrium across the membrane in the absence of plasma protein.
Propranolol was used as a positive control. All samples were prepared in triplicate. The RED device base plate was then sealed and placed in a shaking incubator set to maintain 37°C and 200 rpm for four hours.
After incubation, 100 µL of each sample was combined with an equal volume of either plasma or buffer, to create a similar matrix for all samples. Blank buffer was added to plasma samples, and vice versa. Samples from the incubation, along with the original compound-spiked plasma samples, were prepared for analysis in the same manner. Protein precipitation by addition of two parts of ice-cold acetonitrile to one part of reaction volume was carried out. To ensure complete protein precipitation samples were sealed and placed overnight at 4°C. The next morning samples were centrifuged at 3,600 rpm for 15 minutes. The supernatants (70 µL) were supplemented with an equal volume of internal standard solution (0.15 µM verapamil in water) and subjected to LC-MS/MS analysis.

[3] = Homo sapiens, HEK293 cells, tunicamycin-induced ER stress, read-out: p-eIF2α IC50

| SMILES | IC50 (p-eIF2α; [3]) [µM] | Papp A→B at 120 min, 5 µM [1] [×10⁻⁶ cm/s] | efflux ratio at 120 min, 5 µM [1] | fraction unbound at 4 h, 1 µM [2] | IC50 (p-eIF2α; bound stated, read-out: cellular potency) [µM] |
| --- | --- | --- | --- | --- | --- |
| Cc1nc(N)c2c(-c3ccc(NC(=O)[C@H](O)c4cccc(F)c4)cc3C)cn(C)c2n1 [Compound 24] | 0.051 | 9 | 5.2 | 0.006 |  |
| Cc1nc(N)c2c(-c3ccc(NC(=O)[C@H](O)c4cccc(C(F)(F)F)c4)cc3C)cn(C)c2n1 [Compound 26] | 0.015 | 21 | 2.2 | 0.001 |  |
| Cc1nc(N)c2c(-c3ccc(NC(=O)[C@H](O)c4cc(F)cc(C(F)(F)F)c4)cc3C)cn(C)c2n1 [Compound 39] | 0.011 | 16 | 2 | < 0.001 |  |
| Cc1nc(N)c2c(-c3ccc(NC(=O)[C@H](O)c4cccc(F)c4)c(F)c3F)cn(C)c2n1 [Compound 70, (R)-N-(4-(4-amino-2,7-dimethyl-7H-pyrrolo[2,3-d]pyrimidin-5-yl)-2,3-difluorophenyl)-2-(3-fluorophenyl)-2-hydroxyacetamide] | 0.024 | 29 | 1.7 | 0.003 |  |

Other lines, results leading:

| IC50 (p-eIF2α; [3]) [µM] | Papp A→B at 120 min, 5 µM [1] [×10⁻⁶ cm/s] | efflux ratio at 120 min, 5 µM [1] | fraction unbound at 4 h, 1 µM [2] | IC50 (p-eIF2α; bound stated, read-out: cellular potency) [µM] | SMILES |
| --- | --- | --- | --- | --- | --- |
| 0.0084 |  |  |  |  | Cc1cc(NC(=O)[C@H](O)c2cccc(F)c2)ccc1-c1cn(C)c2ncnc(N)c12 [Compound 11, (R)-N-(4-(4-amino-7-methyl-7H-pyrrolo[2,3-d]pyrimidin-5-yl)-3-methylphenyl)-2-(3-fluorophenyl)-2-hydroxy acetamide] |
| 0.016 | 23 | 1.9 | < 0.001 |  | Cc1nc(N)c2c(-c3ccc(NC(=O)[C@H](O)c4cccc(Cl)c4)cc3C)cn(C)c2n1 [Compound 28] |
| 0.014 | 19 | 1.9 | 0.008 |  | Cc1nc(N)c2c(-c3ccc(NC(=O)[C@H](O)c4cc(F)cc(F)c4)cc3C)cn(C)c2n1 [Compound 38] |
| 0.01 | 20 | 2.5 | 0.001 |  | Cc1cc(F)cc([C@@H](O)C(=O)Nc2ccc(-c3cn(C)c4nc(C)nc(N)c34)c(C)c2)c1 [Compound 41] |
| 0.01 | 24 | 1.6 | 0.002 | < 0.015 | Cc1nc(N)c2c(-c3ccc(NC(=O)[C@H](O)c4cccc(Cl)c4)cc3F)cn(C)c2n1 [Compound 48] |
| 0.03 | 26 | 1.6 | 0.007 |  | Cc1nc(N)c2c(-c3ccc(NC(=O)[C@H](O)c4cccc(F)c4)c(F)c3C)cn(C)c2n1 [Compound 65] |
| 0.042 | 24 | 1.5 | 0.012 |  | Cc1nc(N)c2c(-c3cc(F)c(NC(=O)[C@H](O)c4cccc(F)c4)cc3C)cn(C)c2n1 [Compound 66] |
